{"source": "patent US11167007B2", "about": "“FOXM1 modulators and uses thereof” (City of Hope, priority 2016, dated 2021)", "key": {"[1]": {"target": "T1, AR with a 112 glutamine tract (Homo sapiens, UniProt P10275, INS80QQQQQQQQQQQQQQQQQQQQQQQQQQQQQQQQQQQQQQQQQQQQQQQQQQQQQQQQQQQQQQQQQQQQQQQQQQQQQQQQQQQQQQQQQ)", "T1 construct": "expressed in transfected cells; host or cells: PC12 (ARQ112), inducible", "T1 sequence (P10275 with tags, fused parts or gaps with the stated changes)": "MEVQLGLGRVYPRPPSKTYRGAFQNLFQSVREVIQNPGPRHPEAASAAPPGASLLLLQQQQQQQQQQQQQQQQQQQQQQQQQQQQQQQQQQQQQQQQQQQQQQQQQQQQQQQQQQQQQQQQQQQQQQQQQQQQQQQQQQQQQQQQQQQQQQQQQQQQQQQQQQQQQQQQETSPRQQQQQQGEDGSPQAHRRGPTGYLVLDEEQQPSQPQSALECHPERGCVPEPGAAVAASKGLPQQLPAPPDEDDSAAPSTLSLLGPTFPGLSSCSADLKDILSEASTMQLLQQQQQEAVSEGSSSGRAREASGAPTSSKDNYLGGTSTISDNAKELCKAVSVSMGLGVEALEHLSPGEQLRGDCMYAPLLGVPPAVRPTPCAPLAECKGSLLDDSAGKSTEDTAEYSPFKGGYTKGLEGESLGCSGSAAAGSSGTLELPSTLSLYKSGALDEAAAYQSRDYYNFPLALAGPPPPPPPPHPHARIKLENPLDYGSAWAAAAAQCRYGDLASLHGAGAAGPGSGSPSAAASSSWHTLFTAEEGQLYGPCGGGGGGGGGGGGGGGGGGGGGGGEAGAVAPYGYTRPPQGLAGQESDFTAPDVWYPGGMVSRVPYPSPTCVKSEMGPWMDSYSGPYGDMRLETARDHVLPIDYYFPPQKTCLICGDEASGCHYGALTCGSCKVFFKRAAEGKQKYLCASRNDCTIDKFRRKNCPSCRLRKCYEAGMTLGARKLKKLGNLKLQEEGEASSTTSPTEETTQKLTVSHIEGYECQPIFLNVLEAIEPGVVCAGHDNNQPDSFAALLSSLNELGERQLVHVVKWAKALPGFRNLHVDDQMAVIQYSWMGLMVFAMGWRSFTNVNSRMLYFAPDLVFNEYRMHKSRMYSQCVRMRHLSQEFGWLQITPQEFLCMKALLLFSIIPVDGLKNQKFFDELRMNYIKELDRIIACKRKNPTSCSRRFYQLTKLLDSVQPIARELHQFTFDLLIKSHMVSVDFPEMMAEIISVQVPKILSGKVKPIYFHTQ", "assay": "Androgen-responsive luciferase reporter assay in PC12 (ARQ112) neuronal cells", "type": "cell-based", "details": "PC12 cells expressing AR with 112 glutamine tract, FIG. 2B", "text": "Luciferase Reporter Assay. Cells were transfected using Lipofectamine Plus (Invitrogen) with a normalization plasmid (pRL-SV40, Promega) and an androgen responsive plasmid (MMTV-luciferase or PSA-luciferase) as described in Jones et al, ACS Chem Biol, 3(7):412-8 (2008), and, where indicated, with an shRNA plasmid targeting FOXM1 (adapted for mouse FOXM1 sequence targeting) a scrambled control shRNA plasmid, or ARQ24 or ARQ65 plasmids. Christensen et al, PLoS One, 8(1):e54556 (2013). The following day, cells and drugs were distributed to 96-well plates. 24 hours later, luciferase activity was assessed by a dual luciferase assay kit (Promega) on the Tecan plate reader. Samples were run in quadruplicates and a Student's t test was performed to determine significance, where p<0.05 was considered significant.\nThe ability of thiostrepton to inhibit AR activity in additional neuronal cells, including ReNcell CX cells PC12 cells, and in rat L6 skeletal muscle cells was examined (FIG. 2B). Donato et al, BMC Neurosci, 8:36 (2007); Yaffe, Proc Natl Acad Sci USA, 61(2):477-83 (1968).\nSBMA is caused by the activity of polyglutamine-expanded AR, and experiments were conducted to investigate the effects of thiostrepton against polyglutamine-expanded AR. […]"}, "[2]": {"tested_on": "AR activity in muscle or SV", "assay": "Weights of levator ani muscle and seminal vesicles at end of study", "type": "in vivo, rat", "details": "rats, compared to controls", "experimental": "(§1) Animals and Drugs. This study was carried out in strict accordance with the recommendations in the Guide for the Care and Use of Laboratory Animals of the National Institutes of Health. All experiments were performed under the IUCAC approval of City of Hope. Animals were purchased from Jackson Laboratory (Bar Harbor, Main). For the pilot pharmacokinetic experiment, nine male Sprague Dawley rats (n=3) were administered 1, 10, or 100 mg/kg intraperitoneal injections thrice per week for four weeks. One hour following the final dose, blood and spinal fluid were collected and analyzed by mass spectrometry. For the efficacy experiment, rats were divided into 3 groups (n=7) as follows: intact, castrated, and thiostrepton. […] Following a treatment period of 7 days, rats were euthanized and organs harvested, weighed and processed for quantitative RT-PCR.\nAndrogens are known to control the growth and maintenance of the skeletal muscle and seminal vesicles. […] In order to investigate the impact of thiostrepton on these tissues, their weights at the end of the study were assessed. […] Because an equivalent androgen-dependent change in weight cannot be tested in motor neurons, the levels of tissue-selective androgen regulate genes, as a marker of AR activity, were assessed. […] RNA was isolated from spinal cord and LA muscle tissue and transcript levels were measured by RT-qPCR (FIG. 5F, FIG. 5H). […]"}, "AR activity in LA muscle": {"tested_on": "AR activity in LA muscle", "assay": "RT-qPCR of androgen-regulated transcripts in LA muscle", "type": "in vivo, rat", "details": "rats, four genes, FIG. 5H", "experimental": "as §1\nqRT-PCR. The quantitative RT-PCR method has been described by Jones et al, ACS Chem Biol, 3(7):412-8 (2008). […] Differences between experimental (x) and control (y) samples were normalized to RPL19 transcript levels (androgen unresponsive) and determined with the following calculation: (2^(Ctsgene1-Ctygene1))/(2^(CtxRPL19-CtyRPL19)) One-way analysis of variance was applied to determine statistical significant among groups, where p<0.05 was considered significant. […]"}}, "data": [{"smiles": "C=C(NC(=O)C(=C)NC(=O)c1csc(C2=N[C@@H]3c4csc(n4)[C@H]4NC(=O)c5csc(n5)[C@H]([C@](C)(O)[C@@H](C)O)NC(=O)[C@H]5CSC(=N5)/C(=C/C)NC(=O)[C@H]([C@@H](C)O)NC(=O)c5csc(n5)[C@]3(CC2)NC(=O)[C@H](C)NC(=O)C(=C)NC(=O)[C@H](C)NC(=O)[C@H]([C@@H](C)CC)N[C@@H]2C=Cc3c([C@H](C)O)cc(nc3[C@H]2O)C(=O)O[C@@H]4C)n1)C(N)=O", "note": "[thiostrepton]", "values": [{"measurement": "inhibition of AR activity (luciferase)", "setting": "[1]", "value": "efficiently inhibited AR activity"}, {"measurement": "levator ani (LA) muscle weight", "setting": "[2]", "value": "did not change"}, {"measurement": "seminal vesicles (SV) weight", "setting": "[2]", "value": "did not change"}, {"measurement": "androgen-dependent gene transcript levels in LA muscle", "setting": "AR activity in LA muscle", "value": "did not significantly affect"}]}]}
